From publication PMC9863136, “Synthesis and DNase I Inhibitory Properties of New Squaramides” (Molecules, 2023)

Tests used:
[1] = target: bovine pancreatic DNase I (Bos taurus, UniProt P00639); test: in vitro DNase I inhibition assay (spectrophotometric, absorbance of oligonucleotides at 260 nm); format: biochemical
Procedure: Compounds 3a–c were included in an in vitro DNase I inhibition assay.
Evaluation of DNase I inhibition. In vitro determination of the inhibitory activity of compounds 3a–c against bovine pancreatic DNase I was performed using the spectrophotometric method described by Kolarević et al., which is based on measuring the absorbance of the formed oligonucleotides at 260 nm.

bovine pancreatic DNase I, sequence (P00639 23-282): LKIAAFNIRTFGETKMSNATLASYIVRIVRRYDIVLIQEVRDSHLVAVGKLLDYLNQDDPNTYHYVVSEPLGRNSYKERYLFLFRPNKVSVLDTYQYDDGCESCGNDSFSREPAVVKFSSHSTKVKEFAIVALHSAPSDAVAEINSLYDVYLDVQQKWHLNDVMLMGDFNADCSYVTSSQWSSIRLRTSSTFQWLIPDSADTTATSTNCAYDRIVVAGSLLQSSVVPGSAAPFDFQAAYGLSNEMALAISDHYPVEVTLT

| IC50 [1] | melting point | Structure (SMILES) |
| --- | --- | --- |
| 48 ± 7.98 µM | – | CCOc1c(NC(C)Cc2cccnc2)c(=O)c1=O (centres unmarked) [Compound 3c, 3-Ethoxy-4-((1-(pyridin-3-yl)propan-2-yl)amino)cyclobut-3-ene-1,2-dione] |
| 358 ± 40.7 µM | – | CN(C)c1ccc(C(=C2C=CC(=[N+](C)C)C=C2)c2ccc(N(C)C)cc2)cc1 [crystal violet, reference compound] |
| 57.8 ± 9.67 µM | – | CCOc1c(NCCc2ccncc2)c(=O)c1=O [Compound 3b] |
| 54.5 ± 8.07 µM | 139.8 to 141.2 °C | CCOc1c(NCCc2cccnc2)c(=O)c1=O [Compound 3a] |
